Laboratory results published in patent US4161527A, “Antibiotic compositions” (priority 1976, dated 1979).
Structures can show the parent of a compound that is named as a salt.

Tests used:
[1] = tested on: Staphylococcus aureus FDA 209 P; assay: Antibacterial spectrum (agar dilution), M.I.C.; type: cell-based; settings: FDA209
[2] = tested on: Staphylococcus aureus 1840; assay: Antibacterial spectrum (agar dilution), M.I.C.; type: cell-based
[3] = tested on: Escherichia coli NIHJ JC-2; assay: Antibacterial spectrum (agar dilution), M.I.C.; type: cell-based; settings: NIHJJC2
[4] = tested on: Escherichia coli 0-111; assay: Antibacterial spectrum (agar dilution), M.I.C.; type: cell-based; settings: 0111
From the text: (§1) The antibacterial potency (M.I.C.) and toxicity of TTC
(§2) (1) Antibacterial spectrum (agar dilution)

[5] = tested on: Escherichia coli T-7; assay: Antibacterial spectrum (agar dilution), M.I.C.; type: cell-based; settings: T7
From the text: as §1, §2

[6] = tested on: Krebsiella pneumoniae DT; assay: Antibacterial spectrum (agar dilution), M.I.C.; type: cell-based
[7] = tested on: Proteus vulgaris IFO 3988; assay: Antibacterial spectrum (agar dilution), M.I.C.; type: cell-based; settings: IFO3988
[8] = tested on: Proteus morganii IFO 3848; assay: Antibacterial spectrum (agar dilution), M.I.C.; type: cell-based; settings: Morganella morganii, IFO3848
[9] = tested on: Gram-positive and Gram-negative bacteria; type: cell-based
[10] = Storage stability (general statement); type: physicochemical
[11] = tested on: local tissue at the sites of injection; assay: Local reactions at the sites of intramuscular injection (general statement); type: in vivo; settings: intramuscularly injected
[12] = Dissolution in a solvent such as distilled water (general statement); type: physicochemical
[13] = Dissolution time on addition of 3 ml. of distilled water; type: physicochemical; settings: shaken vigorously
Description: To each of the Samples was added 3 ml. of distilled water and the times of dissolution were measured. […] Provided that, in dissolution, Samples A and B were allowed to stand, while Sample C was shaken vigorously.

[14] = Color of the Samples 3 hours after dissolution; type: physicochemical; settings: 3 ml. of distilled water

| Structure (SMILES) | MIC [1] | MIC [2] | MIC [3] | MIC [4] | MIC [5] | MIC [6] | MIC [7] | MIC [8] | antibacterial activity [9] | stability in storage [10] | local reactions at the sites of injection [11] | dissolution [12] | Dissolution time [13] | Color 3 hours after dissolution [14] |
| --- | --- | --- | --- | --- | --- | --- | --- | --- | --- | --- | --- | --- | --- | --- |
| CN(C)CCn1nnnc1SCC1=C(C(=O)O)N2C(=O)[C@@H](NC(=O)Cc3csc(N)n3)[C@H]2SC1.Cl.Cl [TTC, 7β-[2-(2-imino-4-thiazolin-4-yl)acetamido]-3-{1-[2-(N,N-dimethylamino)ethyl]-1H-tetrazol-5-yl}thiomethyl-3-cephem-4-carboxylic acid dihydrochloride] | 0.39 µg/mL | 0.78 µg/mL | 0.2 µg/mL | 0.05 µg/mL | 1.56 µg/mL | 0.1 µg/mL | 1.56 µg/mL | 0.39 µg/mL | strong antibacterial activity against Gram-positive and Gram-negative bacteria | stable in storage | necrosis of muscle cells, discoloration or brown degeneration of the local tissue, hyperemia and other local reactions at the sites of injection | rather slow to be dissolved |  |  |
| CN(C)CCn1nnnc1SCC1=C(C(=O)O)N2C(=O)[C@@H](NC(=O)Cc3csc(=N)[nH]3)[C@H]2SC1 [TTC hydrate, 7β-[2-(2-imino-4-thiazolin-4-yl)acetamido]-3-{1-[2-(N,N-dimethylamino)ethyl]-1-H-tetrazol-5-yl}thiomethyl-3-cephem-4-carboxylic acid dihydrochloride hydrate] |  |  |  |  |  |  |  |  |  |  |  |  | 180 s | Reddish yellow |
